Results: patent US8557998B2, “Benzylpiperizine compound” (Dainippon Sumitomo Pharma Co., Ltd, priority 2008, dated 2013)

What was measured:
[1] = target: T1, human serotonin transporter (h-SERT) (Homo sapiens, UniProt P31645); assay: Screening test using [3H]citalopram binding for evaluating human serotonin reuptake inhibitory effect; conditions: h-SERT/CHO membrane preparation, [3H]citalopram approximately 2 nM, room temperature 60 minutes; read-out: Test Example 1: h-SERT binding inhibition constant (Ki)
T1 construct: expressed in transfected cells; host or cells: CHO cells (h-SERT/CHO), Geneticin-selected
T1 sequence (P31645 whole entry): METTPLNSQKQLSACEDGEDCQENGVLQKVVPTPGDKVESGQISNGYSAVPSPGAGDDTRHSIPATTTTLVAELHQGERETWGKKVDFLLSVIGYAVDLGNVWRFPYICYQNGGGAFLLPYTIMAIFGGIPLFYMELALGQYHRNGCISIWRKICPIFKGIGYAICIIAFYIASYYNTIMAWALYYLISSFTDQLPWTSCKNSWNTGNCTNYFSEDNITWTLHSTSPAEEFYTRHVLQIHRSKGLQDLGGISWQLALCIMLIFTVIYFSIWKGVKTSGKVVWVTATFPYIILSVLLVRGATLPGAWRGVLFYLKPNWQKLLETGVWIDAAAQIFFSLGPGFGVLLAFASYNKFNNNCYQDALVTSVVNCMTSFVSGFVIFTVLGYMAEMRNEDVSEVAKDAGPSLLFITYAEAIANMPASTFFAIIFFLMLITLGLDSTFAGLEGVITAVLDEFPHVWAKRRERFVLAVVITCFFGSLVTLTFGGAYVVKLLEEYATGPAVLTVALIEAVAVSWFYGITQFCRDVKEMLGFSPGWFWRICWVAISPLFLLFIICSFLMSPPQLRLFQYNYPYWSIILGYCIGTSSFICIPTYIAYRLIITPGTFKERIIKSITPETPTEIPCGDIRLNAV
Source text: CHO cells containing a human serotonin transporter (h-SERT) expressed therein (h-SERT/CHO) were used in the experiment.
1-2 Receptor Binding Experiment
A smaller value of the h-SERT binding inhibition constant Ki means a higher human serotonin reuptake inhibitory effect.

[2] = target: T2, human serotonin 1A receptor (h-5-HT1A) (Homo sapiens, UniProt P08908)
T2 sequence (P08908 1-422): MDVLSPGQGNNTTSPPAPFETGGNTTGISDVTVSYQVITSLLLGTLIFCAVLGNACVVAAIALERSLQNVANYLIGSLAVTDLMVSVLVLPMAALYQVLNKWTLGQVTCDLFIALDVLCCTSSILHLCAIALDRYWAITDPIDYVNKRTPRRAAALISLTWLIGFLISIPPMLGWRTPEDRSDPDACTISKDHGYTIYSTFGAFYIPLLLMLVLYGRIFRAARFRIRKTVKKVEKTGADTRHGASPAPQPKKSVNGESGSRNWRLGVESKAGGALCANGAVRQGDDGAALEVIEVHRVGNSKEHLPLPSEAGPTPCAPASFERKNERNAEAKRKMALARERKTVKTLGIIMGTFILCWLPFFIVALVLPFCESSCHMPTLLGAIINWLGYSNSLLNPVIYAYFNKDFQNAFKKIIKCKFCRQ
Procedure: The cells were cultured in F12 containing 10% FCS, 500 μg/ml Geneticin, and 100 U/ml penicillin-100 μg/ml streptomycin (all manufactured by Sigma-Aldrich Corp.) in a 5% CO2 incubator. […] Specifically, the cells were dissociated/collected using 50 mM Tris-HCl (pH=7.4). The resulting cells were homogenized using a Teflon (registered trademark) homogenizer and then centrifuged (48,000×g, 20 min, 4° C.). The pellet was resuspended in an appropriate amount of 50 mM Tris-HCl (pH=7.4) and stored at −80° C. until use. The amount of the protein in the membrane preparation was quantified using Dye Reagent Concentrate (manufactured by Bio-Rad Laboratories, Inc.) with bovine serum albumin (manufactured by Sigma-Aldrich Corp.) as a standard.
The reaction solution was reacted at room temperature for 30 minutes and then rapidly filtered by suction at a low pressure through glass fiber filter paper. The glass fiber filter paper was washed twice with 250 μl of 50 mM Tris-HCl (pH=7.4) and then added to a counting vial containing 4 ml of ACS-II (manufactured by Amersham Biosciences). Receptor binding radioactivity remaining on the filter paper was measured using a liquid scintillation counter.

CYP2D6 [3] = target: T3, CYP2D6 (Homo sapiens, UniProt P10635); assay: CYP2D6 inhibition screening test; format: in vitro ADME; conditions: pooled human liver microsomes, substrate bufuralol, 37° C. 10 min, 1'-hydroxybufuralol by LC-MSMS; read-out: Test Example 3: CYP2D6 Inhibition IC50
T3 construct: Pooled of Human Liver Microsomes was purchased from Xenotech, LLC; tissue Xenotech, LLC; host or cells: pooled human liver microsomes
T3 sequence (P10635 whole entry): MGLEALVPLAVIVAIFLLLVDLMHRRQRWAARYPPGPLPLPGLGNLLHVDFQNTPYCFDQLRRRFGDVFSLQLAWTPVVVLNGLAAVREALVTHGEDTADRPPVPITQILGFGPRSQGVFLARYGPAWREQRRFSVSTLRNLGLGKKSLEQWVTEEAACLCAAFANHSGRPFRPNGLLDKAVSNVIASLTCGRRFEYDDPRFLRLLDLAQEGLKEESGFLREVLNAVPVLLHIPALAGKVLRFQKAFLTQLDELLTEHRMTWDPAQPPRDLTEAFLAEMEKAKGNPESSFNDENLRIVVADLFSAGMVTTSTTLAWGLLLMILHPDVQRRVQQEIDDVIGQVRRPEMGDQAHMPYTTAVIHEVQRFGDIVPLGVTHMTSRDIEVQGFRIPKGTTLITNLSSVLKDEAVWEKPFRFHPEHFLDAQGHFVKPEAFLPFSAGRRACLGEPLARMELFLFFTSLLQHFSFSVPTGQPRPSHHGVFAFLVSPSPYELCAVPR
Procedure: CYP2D6 Inhibition Screening Test
Bufuralol was purchased from Sigma-Aldrich Corp., and Pooled of Human Liver Microsomes was purchased from Xenotech, LLC.
150 μL of Pooled Human Liver Microsomes (20 mg/ml), 12 mL of a 0.5 M potassium phosphate buffer, 1.2 mL of a 165 mM magnesium chloride solution, and 34.65 mL of distilled water were mixed.
Bufuralol was dissolved at a concentration of 2.0 mM in DMSO and then diluted 200-fold with distilled water.
3-3 Experimental Procedures
1. A 10 mM DMSO solution of a test drug was serially diluted 5-fold with DMSO for 4 serial dilutions to prepare 10, 2, 0.4, and 0.08 mM DMSO solutions.
2. Each test drug solution of the step 1. and DMSO were separately diluted 96-fold with a human liver microsome solution, and each dilution was dispensed and 80 μL of each dilution to microplates.
3. 10 μL of a substrate solution and 10 μL of a β-NADPH solution were added to the well of the step 2., followed by incubation at 37° C. for 10 min.
4. The reaction was terminated by the addition of 300 μL of methanol.
5. The reaction mixture was filtered, and LC-MSMS analysis was conducted.
3-4 Quantification and Calculation
The amount of 1′-hydroxybufuralol produced was quantified by LC-MSMS, and this amount was used as a metabolic activity of CYP2D6 for each well. The remaining activity of each sample was determined by comparison with the activity obtained from DMSO as a test drug. An IC50 value of CYP2D6 inhibition was determined from the test drug concentration and remaining activity. The IC50 value was calculated by linear interpolation between two points that span the remaining activity 50%. A larger value of IC50 of CYP2D6 inhibition means weaker CYP2D6 inhibition.

CYP2D6 [4] = target: T3, CYP2D6; assay: Screening test of the rate of CYP2D6 contribution in human liver microsomal metabolism; format: in vitro ADME; set-up: key to Rate of CYP2D6 Contribution indeterminable due to high stability for human microsomal metabolism: —*^): The rate of CYP2D6 contribution was indeterminable in the present test due to high stability for human microsomal metabolism; conditions: 1 mg/mL human liver microsomes, 1 μM test substance, 37° C.
Procedure: Screening Test of the Rate of CYP2D6 Contribution in Human Liver Microsomal Metabolism
0.2 mL of a 50 mM potassium phosphate buffer solution (pH 7.4) containing NADPH (final concentration: 3 mM, manufactured by Oriental Yeast Co., Ltd.), 1 mg/mL human liver microsomes (manufactured by XENOTECH, LLC), and a 1 μM test substance was heated on a water bath at 37° C. for metabolic reaction. After the reaction for 15 minutes or 30 minutes, methanol was added in a volume 3 times that of the reaction solution, and the mixture was stirred to terminate the reaction. This reaction solution was centrifuged for protein precipitation. Then, the supernatant was collected and subjected to LC-MS/MS analysis. The results were analyzed as follows:
The test substance was quantified, and time-dependent change in the amount of the substance remaining was logarithmically plotted. A metabolic rate was calculated from the slope.
The ratio of the metabolic rate obtained by the addition of quinidine (final concentration: 4 μM) to the reaction solution to the metabolic rate obtained without the addition was used as the rate of contribution of enzymes other than CYP2D6, and the rate of contribution obtained by subtracting this rate of contribution of other enzymes from the total was used as the rate of CYP2D6 contribution. Specifically, it was calculated according to the equation: Rate of contribution(%)={1−(metabolic rate [with quinidine]/metabolic rate[without quinidine])}×100. A smaller value of the rate of CYP2D6 contribution means smaller CYP2D6 contribution.

[5] = target: T1, human serotonin transporter (h-SERT); assay: Serotonin transporter function inhibition test using [3H]5-HT; format: cell-based; conditions: h-SERT/CHO cells, [3H]5-HT uptake approximately 10 nM, 37° C. 10 minutes; read-out: Test Example 5: h-SERT Function Inhibition Constant (Ki)
Procedure: 1-1 Cells Used and Preparation of Cell Suspension
CHO cells containing a human serotonin transporter (h-SERT) expressed therein (h-SERT/CHO) were used in the experiment. […] The collected cells were suspended in a buffer solution containing 0.1 mM CaCl2 and 1 mM MgCl2 in PBS (hereinafter, referred to as PBSCM) and stored in ice until use.
Specifically, 149 μl of the cell suspension (10×10^4 cells/well) and 1 μl of a solution of a test drug dissolved in dimethyl sulfoxide were preincubated at 37° C. for 10 minutes.

SMILES: O=C1CCOc2ccc(CCN3CCC(Cc4ccc(Br)c(OCCO)c4)CC3)cc21 [Example 13, 6-(2-{4-[4-Bromo-3-(2-hydroxyethoxy)benzyl]piperidin-1-yl}ethyl)-2,3-dihydro-4H-chromen-4-one]
- Ki [1]: 7.4 nM
- Ki [2]: 8.6 nM
- IC50 (CYP2D6 [3]): 26900 nM
- Rate of CYP2D6 Contribution indeterminable due to high stability for human microsomal metabolism (CYP2D6 [4]): —*^)
- Ki [5]: 51 nM
